Legend:
[1] = PK study in healthy volunteers (4-way crossover, morning vs evening dosing); type: in vivo, human
Description: The increased exposure with QHS was confirmed in a study investigating nilotinib pharmacokinetics in healthy volunteers (HV) comparing cohorts receiving 600 mg morning dose or 600 mg morning dose QHS, respectively. In a single center, 4-way crossover study (n=16-24), HV group A was administered 300 mg nilotinib (in the form of nilotinib monohydrochloride monohydrate) in the morning, 2 hours after breakfast; HV group B was administered 300 mg nilotinib (in the form of nilotinib monohydrochloride monohydrate) in the evening, 2 hours after diner; HV group C was administered 600 mg nilotinib (in the form of nilotinib monohydrochloride monohydrate) in the evening, 2 hours after diner; and HV group D was administered 600 mg nilotinib (in the form of nilotinib monohydrochloride monohydrate) in the evening, 4 hours after diner.
The nilotinib PK was compared when administered in the evening versus administration in the morning (B vs. A) and the potential residual food effect on nilotinib absorption was assessed (D vs. C).

[2] = human, in vivo, po, 400 mg
Description: The effect of food on the pharmacokinetic parameters of 400 mg oral dose of nilotinib in the formulation mentioned above was studied in human subjects. […] In view of these findings, it is recommended that nilotinib shall not be taken with a meal in order to minimize the effect of food on nilotinib bioavailability. A statement in this regard is, for instance, included in sections 4.2, 4.4 and 4.5 of the SPC (Summary of Product Characteristics) of the marketing authorization for Tasigna™ issued by the European Medicines Agency (EMEA).

[3] = Study in CML patients obtaining 400 mg nilotinib twice daily (trough concentrations C0, C12); type: in vivo, human; conditions: 21 CML patients, 400 mg twice daily
Description: 21 Patients were treated with 400 mg nilotinib twice daily. Blood samples were collected prior to morning dose (C0) and prior to evening dose (C12). […] With other words, the trough concentration of nilotinib in the morning was 60 to 80% higher than that observed in the evening.

[4] = 300 mg evening vs 300 mg morning
[5] = 600 mg evening 4 hours after diner vs 2 hours after diner
[6] = group A: 300 mg in the morning, 2 hours after breakfast, N = 20
[7] = group B: 300 mg in the evening, 2 hours after diner, N = 18
[8] = group C: 600 mg in the evening, 2 hours after diner, N = 22
[9] = group D: 600 mg in the evening, 4 hours after diner, N = 22

## Cc1cn(-c2cc(NC(=O)c3ccc(C)c(Nc4nccc(-c5cccnc5)n4)c3)cc(C(F)(F)F)c2)cn1 [nilotinib, 4-methyl-3-[[4-(3-pyridinyl)-2-pyrimidinyl]amino]-N-[5-(4-methyl-1H-imidazol-1-yl)-3-(trifluoromethyl)phenyl] benzamide]
[1]; [4]
  AUC0-12, Geometric Mean Ratio (90% Cls) B vs A: 1.21
  AUC0-24, Geometric Mean Ratio (90% Cls) B vs A: 1.21
  AUC0-inf, Geometric Mean Ratio (90% Cls) B vs A: 1.09
  AUC0-tlast, Geometric Mean Ratio (90% Cls) B vs A: 1.14
  Cmax, Geometric Mean Ratio (90% Cls) B vs A: 1.14
  tmax, Geometric Mean Ratio (90% Cls) B vs A: 0.49
[1]; [5]
  AUC0-12, Geometric Mean Ratio (90% Cls) D vs C: 0.93
  AUC0-24, Geometric Mean Ratio (90% Cls) D vs C: 0.93
  AUC0-inf, Geometric Mean Ratio (90% Cls) D vs C: 0.94
  AUC0-tlast, Geometric Mean Ratio (90% Cls) D vs C: 0.94
  Cmax, Geometric Mean Ratio (90% Cls) D vs C: 0.92
  tmax, Geometric Mean Ratio (90% Cls) D vs C: −0.49
[1]; [6]
  AUC0-12: 4577 ng·h/mL
  AUC0-24: 7781 ng·h/mL
  AUC0-inf: 14920 ng·h/mL
  AUC0-tlast: 13650 ng·h/mL
  Cmax: 577 ng/mL
  t1/2: 20.3 h
  tmax: 4.0 h
[1]; [7]
  AUC0-12: 5537 ng·h/mL
  AUC0-24: 9435 ng·h/mL
  AUC0-inf: 16272 ng·h/mL
  AUC0-tlast: 15556 ng·h/mL
  Cmax: 655 ng/mL
  t1/2: 14.5 h
  tmax: 4.0 h
[1]; [8]
  AUC0-12: 7124 ng·h/mL
  AUC0-24: 11857 ng·h/mL
  AUC0-inf: 23216 ng·h/mL
  AUC0-tlast: 20819 ng·h/mL
  Cmax: 854 ng/mL
  t1/2: 20.5 h
  tmax: 4.0 h
[1]; [9]
  AUC0-12: 6650 ng·h/mL
  AUC0-24: 111064 ng·h/mL
  AUC0-inf: 21937 ng·h/mL
  AUC0-tlast: 19591 ng·h/mL
  Cmax: 782 ng/mL
  t1/2: 19.9 h
  tmax: 4.0 h
[1]; healthy volunteers, evening vs morning dose
  exposure higher following the evening dose than the morning dose: up to 20%
[2]
  increase in total exposure (AUC0-t) with food: 29%
  total exposure (AUC0-t) increase with food: 82%
[3]
  ratio C0/C12 (concentration prior to morning dose / prior to evening dose): 1.7
